Assay results: ChEMBL document CHEMBL5038616, “Synthesis and biological evaluation of N, N-dialkylcarboxy coumarin-NO donor conjugates as potential anticancer agents” (Bioorg Med Chem Lett, 2021)
Activity calls are given as the source filed them. The calls are words filed in the database; no cut-off is given here.

Key:
[1] = Cytotoxicity against human MCF-10A cells assessed as inhibition of cell proliferation by MTT assay; assay type: toxicity, cell-based
MDA-MB-231 [2] = assay: Induction of apoptosis in human MDA-MB-231 cells assessed as viable cells at 10 nM by annexin V-FITC and PI staining based flow cytometry method (reference value: 93.2 %); assay type: functional; conditions: read-out: Activity
MDA-MB-231 [3] = assay: Inhibition of colony formation in human MDA-MB-231 cells assessed as reduction in colony formation at 1 to 3 nM relative to control; assay type: functional, cell-based; conditions: dose 1-3 nM
MDA-MB-231 [4] = assay: Induction of NO production in human MDA-MB-231 cells assessed as nitrite level at 100 uM by Griess reagent based assay; assay type: functional, cell-based
MDA-MB-231 [5] = assay: Antitumor activity against human MDA-MB-231 cells xenografted in NOD-SCID mouse assessed as reduction in tumor mass at 20 mg/kg, ip measured for every 2 to 3 days; assay type: functional; set-up: scale not given: the % may be the effect or the level left; conditions: time 2-3 day
MDA-MB-231 [6] = assay: Induction of apoptosis in human MDA-MB-231 cells assessed as necrotic cells at 10 nM by annexin V-FITC and PI staining based flow cytometry method(reference value: 2.88 %); assay type: functional
MDA-MB-231 [7] = assay: Antiproliferative activity against human MDA-MB-231 cells assessed as inhibition of cell proliferation by MTT assay; assay type: functional, cell-based
[8] = Toxicity in […] mouse xenografted with human MDA-MB-231 cells assessed as body weight loss at 20 mg/kg, ip dosed once daily for 14 days relative to control; assay type: organism-based; conditions: in vivo, 336 h, time 14 day
MDA-MB-231 [9] = assay: Induction of apoptosis in human MDA-MB-231 cells assessed as late apoptotic cells at 25 nM by annexin V-FITC and PI staining based flow cytometry method (reference value: 2.02 %); assay type: functional
MDA-MB-231 [10] = assay: Induction of apoptosis in human MDA-MB-231 cells assessed as late apoptotic cells at 50 nM by annexin V-FITC and PI staining based flow cytometry method (reference value: 2.02 %); assay type: functional
WiDr = assay: Antiproliferative activity against human WiDr cells assessed as inhibition of cell proliferation by MTT assay; assay type: functional, cell-based
MDA-MB-231 [11] = assay: Induction of apoptosis in human MDA-MB-231 cells assessed as viable cells at 50 nM by annexin V-FITC and PI staining based flow cytometry method (reference value: 93.2 %); assay type: functional; conditions: read-out: Activity
MDA-MB-231 [12] = assay: Induction of NO production in human MDA-MB-231 cells assessed as increase in NO fluorescence at 50 nM treated with DAF-DM diacetate for 30 mins and measured after 2 hrs incubation by confocal microscopic analysis; assay type: functional, cell-based
MDA-MB-231 [13] = assay: Induction of apoptosis in human MDA-MB-231 cells assessed as early apoptotic cells at 10 nM by annexin V-FITC and PI staining based flow cytometry method (reference value: 1.92 %); assay type: functional
MDA-MB-231 [14] = assay: Cell cycle arrest in human MDA-MB-231 cells assessed as accumulation of cells at G0/G1 phase at 20 nM by PI staining based flow cytometry method; assay type: functional
MDA-MB-231 [15] = assay: Induction of apoptosis in human MDA-MB-231 cells assessed as viable cells at 25 nM by annexin V-FITC and PI staining based flow cytometry method (reference value: 93.2 %); assay type: functional; conditions: read-out: Activity
[16] = Cytotoxicity against human HDFa cells assessed as inhibition of cell proliferation by MTT assay; assay type: toxicity, cell-based
MDA-MB-231 [17] = assay: Induction of apoptosis in human MDA-MB-231 cells assessed as necrotic cells at 50 nM by annexin V-FITC and PI staining based flow cytometry analysis (reference value: 2.88 %); assay type: functional
MDA-MB-231 [18] = assay: Induction of apoptosis in human MDA-MB-231 cells assessed as early apoptotic cells at 25 nM by annexin V-FITC and PI staining based flow cytometry method (reference value: 1.92 %); assay type: functional
MDA-MB-231 [19] = assay: Induction of apoptosis in human MDA-MB-231 cells assessed as late apoptotic cells at 10 nM by annexin V-FITC and PI staining based flow cytometry method (reference value: 2.02 %); assay type: functional
4T1 = assay: Antiproliferative activity against mouse 4T1 cells assessed as inhibition of cell proliferation by MTT assay; assay type: functional, cell-based
MDA-MB-231 [20] = assay: Antitumor activity against human MDA-MB-231 cells xenografted in NOD-SCID mouse assessed as reduction in tumor volume at 20 mg/kg, ip measured for every 2 to 3 days; assay type: functional; set-up: scale not given: the % may be the effect or the level left; conditions: time 2-3 day
MDA-MB-231 [21] = assay: Induction of apoptosis in human MDA-MB-231 cells assessed as early apoptotic cells at 50 nM by annexin V-FITC and PI staining based flow cytometry method (reference value: 1.92 %); assay type: functional
MDA-MB-231 [22] = assay: Induction of apoptosis in human MDA-MB-231 cells assessed as necrotic cells at 25 nM by annexin V-FITC and PI staining based flow cytometry method (reference value: 2.88 %); assay type: functional

Structure (SMILES) | IC50 [1] [µM] | IC50 (MDA-MB-231 [7]) [µM] | IC50 (WiDr) [µM] | Activity (MDA-MB-231 [12]) | IC50 [16] [µM] | IC50 (4T1) [µM] | Activity (MDA-MB-231 [4]) | other results
O=C(OCCOc1no[n+]([O-])c1S(=O)(=O)c1ccccc1)c1cc2ccc(N(Cc3ccccc3)Cc3ccccc3)cc2oc1=O | 34 | 0.02 | 0.03 | Active | 1.48 | 0.13 | – | viability at 0.01 µM (MDA-MB-231 [2]): 90.9%; Activity (MDA-MB-231 [3]): Dose-Dependent Effect; IC50 (MDA-MB-231 [4]): Active; Activity (MDA-MB-231 [5]): 35%; Activity (MDA-MB-231 [6]): 1.36%; Activity [8]: Non-Toxic; Activity (MDA-MB-231 [9]): 19.4%; Activity (MDA-MB-231 [10]): 32.9%; viability at 0.05 µM (MDA-MB-231 [11]): 60.8%; Activity (MDA-MB-231 [13]): 2.04%; Activity (MDA-MB-231 [14]): Active; viability at 0.025 µM (MDA-MB-231 [15]): 75.9%; Activity (MDA-MB-231 [17]): 1.47%; Activity (MDA-MB-231 [18]): 3.04%; Activity (MDA-MB-231 [19]): 5.7%; Activity (MDA-MB-231 [20]): 48%; Activity (MDA-MB-231 [21]): 4.8%; Activity (MDA-MB-231 [22]): 1.65%
O=C(c1cc2ccc(N(Cc3ccccc3)Cc3ccccc3)cc2oc1=O)N1CCN(CCOc2no[n+]([O-])c2S(=O)(=O)c2ccccc2)CC1 | 8.6 | 0.46 | 10 | Active | 5.31 | 0.96 | inactive | –
CCN(CC)c1ccc2cc(C(=O)OCCOc3no[n+]([O-])c3S(=O)(=O)c3ccccc3)c(=O)oc2c1 | – | 3.6 | 2.2 | Active | 1.48 | 1.3 | Active | –
CCN(CC)c1ccc2cc(C(=O)OCCO)c(=O)oc2c1 | > 100 | > 100 | > 100 | – | – | > 100 | – | –
O=C(O)c1cc2ccc(N(Cc3ccccc3)Cc3ccccc3)cc2oc1=O | > 100 | > 100 | > 100 | – | – | > 100 | – | –
O=C(OCCO)c1cc2ccc(N(Cc3ccccc3)Cc3ccccc3)cc2oc1=O | > 100 | > 100 | > 100 | – | – | > 100 | – | –
